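Method: 48-hour compound exposure of cells in 96-well plates, five concentrations, linear interpolation of endpoints. Abbreviation: GI50, concentration required for 50% inhibition of growth. TGI marks complete inhibition of growth.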
How the values were obtained:
Experiment in all cases: NCI tumour cell line growth inhibition, 48 h
UACC-62 melanoma = tested on: UACC-62 melanoma
SN12C renal = tested on: SN12C renal
OVCAR-8 ovarian = tested on: OVCAR-8 ovarian
SR leukemia = tested on: SR leukemia
786-0 renal = tested on: 786-0 renal
EKVX NSCLC = tested on: EKVX NSCLC
RPMI-8226 leukemia = tested on: RPMI-8226 leukemia
SK-OV-3 ovarian = tested on: SK-OV-3 ovarian
UO-31 renal = tested on: UO-31 renal
A549 NSCLC = tested on: A549 NSCLC

Compound	TGI (UACC-62 melanoma)	TGI (SN12C renal)	TGI (OVCAR-8 ovarian)	TGI (SR leukemia)	TGI (786-0 renal)	TGI (EKVX NSCLC)	TGI (RPMI-8226 leukemia)	TGI (SK-OV-3 ovarian)	TGI (UO-31 renal)	TGI (A549 NSCLC)	GI50 (UACC-62 melanoma)	GI50 (SN12C renal)	GI50 (OVCAR-8 ovarian)	GI50 (SR leukemia)	GI50 (786-0 renal)	GI50 (EKVX NSCLC)	GI50 (RPMI-8226 leukemia)	GI50 (SK-OV-3 ovarian)	GI50 (UO-31 renal)	GI50 (A549 NSCLC)
O=C1C(c2cnc3ccccc3n2)=C(O)c2ccccc21	> 100 µM	> 100 µM	> 100 µM	> 100 µM	> 100 µM	> 100 µM	> 100 µM	> 46.4 µM	> 100 µM	> 100 µM										
COC(=O)Nc1nc2ccc(Oc3cccc(NC(=O)Nc4cc(C(F)(F)F)ccc4F)c3)cc2[nH]1	> 25 µM	> 25 µM	> 25 µM	> 25 µM	> 25 µM	> 25 µM	> 25 µM	> 25 µM	> 25 µM	> 25 µM	8.11 µM	15.1 µM	> 25 µM	10.2 µM	> 25 µM	> 19.5 µM	> 20.8 µM	10.2 µM	14.3 µM	16 µM
C=C1CC[C@@H]2[C@](C)(COC(C)=O)[C@H](OC(C)=O)CC[C@@]2(C)[C@@H]1CC(Nc1ccc(S(=O)(=O)Nc2ccc(Cl)nn2)cc1)C1=CCOC1=O (stereo partly specified)	3.86 µM	3.66 µM		8.1 µM	3.14 µM	17 µM	3.04 µM	12.3 µM	2.88 µM	10.7 µM	1.49 µM	1.25 µM		1.35 µM	1.69 µM	4.53 µM	0.445 µM	4.05 µM	1.45 µM	2.96 µM
Cn1cccc1-c1cc(-c2ccc(Br)cc2)[nH]c(=O)c1C#N	> 100 µM	> 100 µM	> 100 µM	> 100 µM	> 100 µM	> 100 µM	> 100 µM	> 100 µM	> 100 µM	> 100 µM	49.2 µM	> 100 µM	> 100 µM	> 100 µM	> 100 µM	34.5 µM	> 100 µM	> 100 µM	69.1 µM	> 100 µM
Cc1nn(C)c(COc2ccc(N3CCN(S(=O)(=O)N(C)C)CC3)cc2)c1-c1cccc2c(CCCOc3cccc4ccccc34)c(C(=O)O)n(CCN3CCOCC3)c12		12.4 µM	14.7 µM	11 µM	6.97 µM	15 µM		10.3 µM	20.3 µM	16.9 µM		3.25 µM	3.51 µM	3.13 µM	2.52 µM	3.59 µM		2.64 µM	6.13 µM	4.49 µM
COc1ccc(C2=C(c3ccc(OC)c(OC)c3)C(=O)N3CCCC3C2)cc1 (stereo unspecified)	> 100 µM	> 100 µM	> 100 µM	12.8 µM	> 100 µM		62.6 µM	> 100 µM	> 100 µM	> 100 µM	13.2 µM	45.7 µM	21.7 µM	3.02 µM	27.6 µM		8.47 µM	30.5 µM	22.8 µM	15.1 µM
O=C1/C(=N\O)S(=O)(=O)c2ccccc21	> 100 µM	> 100 µM	> 100 µM	> 100 µM	> 100 µM		> 100 µM	> 100 µM	> 100 µM	> 100 µM										
CCC[CH2][Sn]1([CH2]CCC)[O]C2C(CO)OC(n3ccc(N)nc3=O)C2[O]1 (stereo unspecified)	2.41 µM	2.83 µM	3.11 µM	> 100 µM	2.88 µM		2.02 µM	3.38 µM	2.43 µM	4.73 µM	1.12 µM	1.45 µM	1.66 µM	0.549 µM	1.54 µM		0.29 µM	1.82 µM	1.16 µM	2.38 µM
COc1ccccc1CNCCCN1C(=O)c2ccc3c4c(ccc(c24)C1=O)C(=O)N(CCCN)C3=O	1.56 µM	2.76 µM	3.81 µM	1.36 µM	4.89 µM		4.52 µM	7.18 µM	5.35 µM	4.11 µM	0.422 µM	1.29 µM	0.49 µM	0.243 µM	1.47 µM		1.36 µM	2.53 µM	1.96 µM	1.87 µM
COc1ccc(C(=O)/C=C/c2cccc(Nc3ccnc4cc(Cl)ccc34)c2)cc1				3.77 µM	4.27 µM	> 100 µM	13.8 µM	7.98 µM		> 100 µM				0.491 µM	1.48 µM	1.75 µM	0.572 µM	2.22 µM		2.78 µM
CC(C)(C)c1[nH]nc2c1C(c1cc3ccccc3[nH]c1=O)Nc1cc(C(=O)OCc3ccccc3)ccc1N2 (stereo unspecified)	3.9 µM	> 100 µM	> 100 µM	> 100 µM	> 100 µM		> 100 µM	8.73 µM	> 100 µM	> 100 µM	1.9 µM	3.77 µM	5.5 µM	3.52 µM	3.41 µM		2.71 µM	3.27 µM	3.42 µM	3.33 µM
CCOC(=O)C1CCCCN1C(=O)c1ccc(Nc2cnc3cc(C(F)(F)F)ccc3n2)cc1 (stereo unspecified)	27.7 µM	31.5 µM	> 100 µM	19.1 µM	16.4 µM	> 100 µM	6.42 µM		33.2 µM	44.2 µM	14.2 µM	16.2 µM	33.2 µM	3.8 µM	4.82 µM	36 µM	2.2 µM		14.2 µM	15 µM
CC(C)CCNCC(O)Cn1c2ccccc2c2ccccc21 (stereo unspecified)	22.4 µM	25.1 µM	33.7 µM	6.38 µM	27.3 µM		11.2 µM	31.2 µM	23.3 µM	31.9 µM	10.4 µM	11.2 µM	13.7 µM	2.45 µM	13.2 µM		3.1 µM	17.2 µM	9.21 µM	16.4 µM
c1ccc2[nH]c(-c3cc(-c4ccc5c(c4)OCO5)n[nH]3)nc2c1	14.7 µM	21.3 µM	18 µM	16.8 µM	17.4 µM		7.16 µM	17.7 µM	16.1 µM	19.7 µM	3.08 µM	3.73 µM	3.97 µM	3.37 µM	4.58 µM		1.14 µM	4.98 µM	3.98 µM	4.23 µM

Source: PubChem BioAssay (NCI)
